Data taken from PMC9046198, “Peptidoglycan biosynthesis is driven by lipid transfer along enzyme-substrate affinity gradients” (Nature Communications, 2022).

Columns and labels:
MraY [1] = biological target: T1, MraY (Aquifex aeolicus, UniProt O66465); test: native MS, endogenous adducts and exogenous C55-P titration; type: binding
T1 construct: wild-type MraY, MBP tag removed with HRV3C protease
T1 sequence (O66465 1-359): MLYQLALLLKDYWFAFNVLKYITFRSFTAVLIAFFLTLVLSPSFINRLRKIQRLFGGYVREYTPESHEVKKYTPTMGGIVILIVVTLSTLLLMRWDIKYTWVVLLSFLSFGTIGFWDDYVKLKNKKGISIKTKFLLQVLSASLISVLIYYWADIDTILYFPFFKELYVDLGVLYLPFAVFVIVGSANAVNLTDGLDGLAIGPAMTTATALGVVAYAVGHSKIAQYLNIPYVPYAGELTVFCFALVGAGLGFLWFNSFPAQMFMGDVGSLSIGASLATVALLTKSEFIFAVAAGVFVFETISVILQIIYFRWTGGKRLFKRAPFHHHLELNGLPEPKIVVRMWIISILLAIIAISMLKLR

MurG [2] = biological target: T2, MurG (Escherichia coli, UniProt P17443); test: turnover by purified MurG (with MraY-bound lipid I) to lipid II monitored by native MS; type: biochemical
T2 construct: MurG-GFP-His6 fusion, tag removed with TEV protease
T2 sequence (P17443 2-355): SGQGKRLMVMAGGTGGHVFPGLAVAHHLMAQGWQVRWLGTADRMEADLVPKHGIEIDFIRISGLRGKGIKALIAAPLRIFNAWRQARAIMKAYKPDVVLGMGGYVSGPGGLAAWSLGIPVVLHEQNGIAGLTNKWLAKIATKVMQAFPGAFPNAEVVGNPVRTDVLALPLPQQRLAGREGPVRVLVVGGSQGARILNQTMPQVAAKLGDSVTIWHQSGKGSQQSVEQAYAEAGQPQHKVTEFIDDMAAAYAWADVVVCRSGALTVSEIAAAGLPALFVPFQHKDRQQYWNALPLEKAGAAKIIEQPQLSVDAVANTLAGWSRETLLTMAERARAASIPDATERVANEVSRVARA

MurG [3] = biological target: T2, MurG; test: native MS titration ([…] MurG, […] lipid I), apparent Kd; type: binding
MurG [4] = biological target: T2, MurG; test: native MS titration, apparent Kd; type: binding
MraY [5] = biological target: T1, MraY; test: native MS binding to MraY dimer; also inhibits lipid I synthesis by purified MraY ([…])

CC(C)=CCC/C(C)=C/CC/C(C)=C/CC/C(C)=C\CC/C(C)=C\CC/C(C)=C\CC/C(C)=C\CC/C(C)=C\CC/C(C)=C\CC/C(C)=C\CC/C(C)=C\COP(=O)(O)O [C55-P, undecaprenyl phosphate]
native MS, endogenous adducts and exogenous C55-P titration (MraY [1]): The binding of up to four C55-P molecules per MraY dimer could be clearly resolved

CC(=O)N[C@H]1[C@@H](OP(=O)(O)OP(=O)(O)OC[C@H]2O[C@@H](n3ccc(=O)[nH]c3=O)[C@H](O)[C@@H]2O)O[C@H](CO)[C@@H](O)[C@@H]1O [UDP-GlcNAc]
turnover by purified MurG (with MraY-bound lipid I) to lipid II monitored by nat (MurG [2]): we incubated MraY with MurG and UDP-GlcNAc and observed the formation of lipid II

CC(=O)N[C@H]1[C@@H](OP(=O)(O)OP(=O)(O)OC/C=C(/C)CC/C=C(/C)CC/C=C(/C)CC/C=C(/C)CC/C=C(/C)CC/C=C(/C)CC/C=C(/C)CC/C=C(/C)CC/C=C(\C)CC/C=C(\C)CCC=C(C)C)O[C@H](CO)[C@@H](O)[C@@H]1O[C@H](C)C(=O)N[C@@H](C)C(=O)N[C@H](CCC(=O)N[C@@H](CCCCN)C(=O)N[C@H](C)C(=O)N[C@H](C)C(=O)O)C(=O)O [lipid I]
Kd (MurG [3]): 1900 ± 400 nM

lipid II
Kd (MurG [4]): 2600 ± 900 nM

tunicamycin
native MS binding to MraY dimer; also inhibits lipid I synthesis by purified Mra (MraY [5]): We also captured the binding of a nucleoside antibiotic tunicamycin to the MraY dimer.
